Series [1] in a line: AUC in hCETP/apo B-100 transgenic mouse at 30 mg/kg, po. The following applies: plasma. It counts as ADME, organism-based. Further details: dose 30 mg/kg, route oral.
The nature of series [2]: Plasma concentration in hCETP/apo B-100 transgenic mouse at 30 mg/kg, po after 2 hrs. Further details: dose 30 mg/kg, route oral. It counts as ADME, organism-based.
Series [3] can be described thus: Plasma concentration in hCETP/apo B-100 transgenic mouse at 30 mg/kg, po after 4 hrs. It counts as ADME, organism-based. Further details: dose 30 mg/kg, route oral.
In a further series the test system is Mus musculus. Put plainly: Inhibition of CETP in hCETP/apo B-100 transgenic mouse at 30 mg/kg, po after 8 hrs. Format: functional.
Series [4] has as its target T1, Cholesteryl ester transfer protein (Homo sapiens, UniProt P11597).
T1 sequence (P11597 whole entry): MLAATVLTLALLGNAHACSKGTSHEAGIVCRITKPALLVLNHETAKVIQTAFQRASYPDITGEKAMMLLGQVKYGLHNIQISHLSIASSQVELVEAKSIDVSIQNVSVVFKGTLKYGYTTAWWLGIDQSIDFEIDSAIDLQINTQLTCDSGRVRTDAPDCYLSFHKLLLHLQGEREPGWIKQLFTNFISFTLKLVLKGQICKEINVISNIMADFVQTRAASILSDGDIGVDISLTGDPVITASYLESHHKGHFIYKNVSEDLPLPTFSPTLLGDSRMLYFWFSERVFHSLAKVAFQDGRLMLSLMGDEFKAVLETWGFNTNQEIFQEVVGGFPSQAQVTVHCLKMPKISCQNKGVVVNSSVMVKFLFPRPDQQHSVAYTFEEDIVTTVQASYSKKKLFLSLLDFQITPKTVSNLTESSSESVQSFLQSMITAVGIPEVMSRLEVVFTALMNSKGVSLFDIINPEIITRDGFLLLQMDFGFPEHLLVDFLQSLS
As to the kind of experiment: Inhibition of human recombinant CETP using [3H]-CE/HDL by scintillation proximity assay. (In general: Scintillation proximity formats need no separation of bound from free tracer.)

Series [5] is described as follows: Metabolic stability of the compound in human liver microsomes assessed as compound remaining after 10 mins. Format: ADME. The following applies: read-out: Stability. A general note: Liver microsomes are vesicles of endoplasmic reticulum, rich in cytochrome P450 enzymes.
Series [6] can be described thus: Metabolic stability of the compound in mouse liver microsomes assessed as compound remaining after 10 mins. Format: ADME, Microsome. The following applies: read-out: Stability.
The target of series [7] is T1, Cholesteryl ester transfer protein. Put plainly: Inhibition of CETP in human whole plasma using [3H]-CE/HDL after 10 mins.
A short description of series [8]: Plasma concentration in hCETP/apo B-100 transgenic mouse at 30 mg/kg, po after 8 hrs. It counts as ADME, organism-based. Further details: dose 30 mg/kg, route oral.
Series [9] in a line: Metabolic stability of the compound in rat liver microsomes assessed as compound remaining after 10 mins. It counts as ADME. The following applies: read-out: Stability.

In general, AUC refers to the area under the concentration-time curve, a measure of exposure. As a reminder, the inhibition in vivo is the relative decrease from the control value, in per cent. Read a high inhibition in vivo as a response far below the control. The compound `O=C(NC1CCCC1)N[C@@](Cc1ccccc1)(c1cc(F)cc(C(F)(F)F)c1)c1ccc(Cl)cn1` yielded an AUC in series [1] of 5.71 µM·h. Moreover, the concentration at 2 h in [2] was determined as 1750 nM. This compound came in with a concentration at 4 h in [3] of 1010 nM. In the series with Mus musculus, the inhibition in vivo at 30 mg/kg came to 56%.

What is called IC50 is the concentration that inhibits the measured activity by half. On to `Fc1cc(C(F)(F)F)cc([C@@](Cc2ccccc2)(Nc2nc3c(s2)CCC3)c2ccc(Cl)cn2)c1`, for which the IC50 came out at 0.04 µM in [4] and 8.2 µM in series [7]. In addition, the remaining at 10 min stood at 73% in series [5], 33% in series [6] and 56% in series [9]. The compound also returned an AUC in series [1] of 8.18 µM·h. The compound also yielded a concentration at 2 h in series [2] of 2530 nM. The concentration at 4 h in series [3] stood at 1240 nM. In [8], this compound displayed a concentration at 8 h of 142 nM. For the same compound, testing at 30 mg/kg in the series with Mus musculus gave an inhibition in vivo of 26%.

These data come from ChEMBL document CHEMBL3112495, “Diphenylpyridylethanamine (DPPE)-based aminoheterocycles as cholesteryl ester transfer protein inhibitors” (Bioorg Med Chem Lett, 2014).
